Series [1] has as its system HCV replicon cells Huh 9B. It counts as cell-based. On the procedure:
(§1) HCV replicon cells Huh 9B (ReBlikon), containing the firefly luciferase-ubiquitin-neomycin phosphotransferase fusion protein and EMCV-IRES driven HCV polyprotein with cell culture adaptive mutations.
A flask of cells was trypsinised and a cell count carried out. […] Wells G12 and H12 were left empty in the clear plate as the blank. Plates were then incubated at 37° C. in a 5% CO2 environment for 24 h.
(§2) On the following day compound dilutions are made up in medium at twice their desired final concentration in a clear round bottomed plate. All dilutions have a final DMSO concentration of 1%.
Exception: no compound was added to wells A1 and A2 of either plate and 100 μl of 1% DMSO was added to these instead. Plates were then incubated at 37° C. with 5% CO2 for 72 h.
The clear plate was stained with 100 μl 0.5% methylene blue in 50% ethanol at room temperature for 1 h, followed by solvation of the absorbed methylene blue in 100 μl per well of 1% lauroylsarcosine. Absorbance of the plate was measured on a microplate spectrophotometer (Molecular Devices) and the absorbance for each concentration of compound expressed as a proportion of the relative DMSO control.

Series [2] concerns HCV replicon cells Huh 9B. As to the kind of experiment: HCV replicon assay (luciferase readout). It counts as cell-based. The method, then:
as §1
Cells were cultured at 37° C. in a 5% CO2 environment and split twice a week on seeding at 2×10^6 cells/flask on day 1 and 1×10^6 3 days later. G418 at 0.5 mg/ml was added to the culture medium but not the assay medium.
The culture medium consisted of DMEM with […] glucose and glutamax (Gibco 61965-026) supplemented with 1× non-essential amino acids (Invitrogen 11140-035), penicillin (100 IU/ml)/streptomycin (100 μg/ml) (Invitrogen 15140-122), FCS (10%, 50 ml) and 1 mg/ml G418 (Invitrogen 10131-027) & 10% Australian foetal calf serum (Invitrogen 10099-141).
A flask of cells was trypsinised and a cell count carried out. Cells were diluted to 100,000 cells/ml and 100 μl of this used to seed one opaque white 96-well plate (for the replicon assay) and one flat-bottomed clear plate (for the tox assay) for every seven compounds to be tested for IC50. Wells G12 and H12 were left empty in the clear plate as the blank. Plates were then incubated at 37° C. in a 5% CO2 environment for 24 h.
as §2
Once the dilution plate had been made up, controls and compounds were transferred to the assay plate (containing the cells) at 100 μl /well in duplicate plates. Exception: no compound was added to wells A1 and A2 of either plate and 100 μl of 1% DMSO was added to these instead. Plates were then incubated at 37° C. with 5% CO2 for 72 h.
At the end of the incubation time, the cells in the white plate were harvested by washing 23.5 mM beetle luciferin (Promega E1603), 26 mM ATP (Sigma 0-2060) in […] Tris buffer pH 7.8 aliquoted and stored at −80 C was thawed and diluted 1:50 in luciferase assay buffer (20 mM Tricine (Sigma T-0377), 1.07 mM magnesium carbonate hydroxide (Sigma M-5671), 0.1 mM EDTA (Sigma E-5134), 2.67 mM MgSO4 (BDH 101514Y), 33.3 mM dithiothreitol (Sigma 150460) pH 7.8).
The M injector of the microplate luminometer (Lmax, Molecular Devices) was primed with 5×300 μl injections of the diluted substrate. After 5-60 min incubation in lysis buffer at room temperature, a plate was inserted into the luminometer and 100 μl luciferase assay reagent was added by the injector on the luminometer. The signal was measured using a 1 second delay followed by a 4 second measurement programme.
(In general: Replicon systems follow genome replication, usually without infectious particles.)

[3] abbreviates: concentration reducing total cell area by 50% relative to DMSO controls, methylene blue, absorbance 620 nm, 72 h incubation.
Where [4] appears, read: Hepatitis C virus, 72 h, concentration reducing replicon level (luciferase activity) by 50% vs untreated cell control, 72 h incubation.

Where two headings read alike, the source gives them in different places. A value given as a limit tells only on which side of the number the result lay.

Broadly, the IC50 is the concentration that gives 50% inhibition. Low values mean inhibition by little substance, high ones a need for much substance. In the case of `CC(=O)Nc1ccc(C)c(-c2ccc(C(=O)Nc3ccc(CN4CCS(=O)(=O)CC4)cc3)cc2)c1` [Example 180, 5′-Acetylamino-2′-methyl-biphenyl-4-carboxylic acid [4-(1,1-dioxo-1lambda*6*-thiomorpholin-4-ylmethyl)-phenyl]-amide], in series [1] (setting [3]), the TD50 result is given as “* (* < 50 μM)”. This compound displayed an IC50 in series [2] (setting [4]) of less than 1 µM.

For the compound `Cc1ccc(NC(=O)C2CC2)cc1-c1ccc(C(=O)Nc2ccc(CN(C)C)cc2)cc1` [Example 223, 5′-(Cyclopropanecarbonyl-amino)-2′-methyl-biphenyl-4-carboxylic acid (4-dimethylaminomethyl-phenyl)-amide], in series [1] (setting [3]), the TD50 result is “* (* < 50 μM)”. The compound also had an IC50 in series [2] (setting [4]) of 1 to 5 µM.

With `Cc1ccc(NS(=O)(=O)c2ccc(Cl)cc2)cc1-c1ccc(C(=O)Nc2ccc(CN3CCS(=O)(=O)CC3)cc2)cc1` [Example 202, 5′-(4-Chloro-benzenesulfonylamino)-2′-methyl-biphenyl-4-carboxylic acid [4-(1,1-dioxo-1lambda*6*-thiomorpholin-4-ylmethyl)-phenyl]-amide], the TD50 result in series [1] (setting [3]) is “** (** > 50 μM)”. This compound gave an IC50 in series [2] (setting [4]) of 1 to 5 µM.

With `Cc1ccc(C(=O)Nc2ccc(-n3cncn3)cc2)cc1-c1ccc(C(=O)Nc2ccc(CN3CCS(=O)(=O)CC3)cc2)cc1` [Example 139, 6-Methyl-biphenyl-3,4′-dicarboxylic acid 4′-{[4-(1,1-dioxo-1lambda*6*-thiomorpholin-4-ylmethyl)-phenyl]-amide} 3-[(4-[1,2,4]triazol-1-yl-phenyl)-amide]], the TD50 entry in series [1] is on record as “* (key: * < 50 μM; ** > 50 μM)”. This compound also came in with an IC50 in series [2] of less than 1 µM.

Regarding `Cc1ccc(C(=O)NCc2cccc(F)c2)cc1-c1ccc(C(=O)Nc2ccc(CN3CCS(=O)(=O)CC3)cc2)cc1` [Example 123, 6-Methyl-biphenyl-3,4′-dicarboxylic acid 4′-{[4-(1,1-dioxo-1lambda*6*-thiomorpholin-4-ylmethyl)-phenyl]-amide} 3-(3-fluoro-benzylamide)], the TD50 result in series [1] was “* (key: * < 50 μM; ** > 50 μM)”. In addition, the IC50 in series [2] was less than 1 µM.

Turning to `Cc1ccc(C(=O)Nc2ccc(N3CCOCC3)cc2)cc1-c1ccc(C(=O)Nc2cccc(CN3CCS(=O)(=O)CC3)c2)cc1` [Example 136, 6-Methyl-biphenyl-3,4′-dicarboxylic acid 4′-{[3-(1,1-dioxo-1lambda*6*-thiomorpholin-4-ylmethyl)-phenyl]-amide} 3-[(4-morpholin-4-yl-phenyl)-amide]], the TD50 entry in series [1] was “* (key: * < 50 μM; ** > 50 μM)”. In series [2], the IC50 is 1 to 5 µM.

With `Cc1ccc(NC(=O)C2CC2)cc1-c1ccc(C(=O)Nc2ccc(CN3CCCCC3)cc2)cc1` [Example 228, 5′-(Cyclopropanecarbonyl-amino)-2′-methyl-biphenyl-4-carboxylic acid (4-piperidin-1-ylmethyl-phenyl)-amide], in series [1] (setting [3]), the TD50 entry is given as “* (* < 50 μM)”. In series [2] (setting [4]), the IC50 is 1 to 5 µM.

Take `Cc1ccc(C(=O)Nc2ccc(N3CCOCC3)cc2)cc1-c1ccc(C(=O)NCc2cccc(Br)c2)cc1` [Example 52, 6-Methyl-biphenyl-3,4′-dicarboxylic acid 4′-(3-bromo-benzylamide) 3-[(4-morpholin-4-yl-phenyl)-amide]]: the TD50 result in series [1] is “** (key: * < 50 μM; ** > 50 μM)”. For the same compound, in series [2], the IC50 lay in the range of 1 to 5 µM.

For `Cc1ccc(C(=O)Nc2ccc(N3CCOCC3)cc2)cc1-c1ccc(C(=O)N2CCCC2)cc1` [Example 15, 6-Methyl-4′-(pyrrolidine-1-carbonyl)-biphenyl-3-carboxylic acid (4-morpholin-4-yl-phenyl)-amide], the TD50 result in series [1] (setting [3]) is listed as “* (* < 50 μM)”. This compound also showed an IC50 in series [2] (setting [4]) of more than 5 µM.

On to `Cc1ccc(CNc2ccc3cn[nH]c3c2)cc1-c1ccc(C(=O)Nc2ccc(CN3CCS(=O)(=O)CC3)cc2)cc1` [Example 197, 5′-[(1H-Indazol-6-ylamino)-methyl]-2′-methyl-biphenyl-4-carboxylic acid [4-(1,1-dioxo-1lambda*6*-thiomorpholin-4-ylmethyl)-phenyl]-amide], for which the TD50 entry in series [1] (setting [3]) was “** (** > 50 μM)”. Also, the IC50 in series [2] (setting [4]) is less than 1 µM.

As for `Cc1ccc(C(=O)Nc2ccc(N3CCOCC3)cc2)cc1-c1ccc(C(=O)NCc2ccc(Cl)c(C(F)(F)F)c2)cc1` [Example 42, 6-Methyl-biphenyl-3,4′-dicarboxylic acid 4′-(4-chloro-3-trifluoromethyl-benzylamide) 3-[(4-morpholin-4-yl-phenyl)-amide]], the TD50 result in series [1] is reported as “** (key: * < 50 μM; ** > 50 μM)”. Besides, the IC50 in series [2] is less than 1 µM.

Regarding `Cc1ccc(C(=O)NCC2CCCCC2)cc1-c1ccc(C(=O)Nc2ccc(CN3CCS(=O)(=O)CC3)cc2)cc1` [Example 146, 6-Methyl-biphenyl-3,4′-dicarboxylic acid 3-cyclohexylmethyl-amide 4′-{[4-(1,1-dioxo-1lambda*6*-thiomorpholin-4-ylmethyl)-phenyl]-amide}], the TD50 result in series [1] is listed as “* (key: * < 50 μM; ** > 50 μM)”. In series [2], the IC50 is less than 1 µM.

As to `Cc1ccc(NS(=O)(=O)c2ccc(Cl)s2)cc1-c1ccc(C(=O)Nc2ccc(CN3CCS(=O)(=O)CC3)cc2)cc1` [Example 204, 5′-(5-Chloro-thiophene-2-sulfonylamino)-2′-methyl-biphenyl-4-carboxylic acid [4-(1,1-dioxo-1lambda*6*-thiomorpholin-4-ylmethyl)-phenyl]-amide], the TD50 result in series [1] (setting [3]) is reported as “* (* < 50 μM)”. This compound also showed an IC50 in series [2] (setting [4]) of 1 to 5 µM.

`Cc1ccc(NC(=O)C2CCCCC2)cc1-c1ccc(C(=O)Nc2ccc(CCN3CCS(=O)(=O)CC3)cc2)cc1` [Example 242, 5′-(Cyclohexanecarbonyl-amino)-2′-methyl-biphenyl-4-carboxylic acid {4-[2-(1,1-dioxo-1lambda*6*-thiomorpholin-4-yl)-ethyl]-phenyl}-amide]: the TD50 result in series [1] (setting [3]) is reported as “* (* < 50 μM)”. The compound further showed an IC50 in series [2] (setting [4]) of 1 to 5 µM.

Regarding `Cc1ccc(CNCc2cccc(Cl)c2)cc1-c1ccc(C(=O)Nc2ccc(CN3CCS(=O)(=O)CC3)cc2)cc1` [Example 199, 5′-[(3-Chloro-benzylamino)-methyl]-2′-methyl-biphenyl-4-carboxylic acid [4-(1,1-dioxo-1lambda*6*-thiomorpholin-4-ylmethyl)-phenyl]-amide], in series [1] (setting [3]), the TD50 result is “* (* < 50 μM)”. This compound also yielded an IC50 in series [2] (Hepatitis C virus, concentration reducing replicon level (luciferase activity) by 50% vs untreated cell control, 72 h incubation) of 1 to 5 µM.

Turning to `COc1ccccc1C(=O)Nc1ccc(-c2cccc(C(=O)Nc3ccc(CN4CCS(=O)(=O)CC4)cc3)c2)c(C)c1` [Example 134, 4′-(2-Methoxy-benzoylamino)-2′-methyl-biphenyl-3-carboxylic acid [4-(1,1-dioxo-1lambda*6*-thiomorpholin-4-ylmethyl)-phenyl]-amide], the TD50 result in series [1] (setting [3]) was “* (* < 50 μM)”. This compound also showed an IC50 in series [2] (setting [4]) of 1 to 5 µM.

Regarding “6-Methyl-biphenyl-3,4′-dicarboxylic acid 4′-[(1H-indol-6-yl)-amide] 3-[(4-morpholin-4-yl-phenyl)-amide] [Example 44]”, the IC50 in series [2] (concentration reducing replicon level (luciferase activity) by 50% vs untreated cell control, 72 h incubation) is less than 1 µM.

In the case of `Cc1ccc(CNc2ccc3cn[nH]c3c2)cc1-c1ccc(C(=O)Nc2ccc(CN3CCS(=O)(=O)CC3)cc2)cc1` [Example 201, 5′-[(1H-Indazol-6-ylamino)-methyl]-2′-methyl-biphenyl-4-carboxylic acid [4-(1,1-dioxo-1lambda*6*-thiomorpholin-4-ylmethyl)-phenyl]-amide], in series [1] (setting [3]), the TD50 entry is given as “* (* < 50 μM)”.

“6-Methoxy-biphenyl-3,4′-dicarboxylic acid 4′-{[4-(1,1-dioxo-1lambda*6*-thiomorpholin-4-ylmethyl)-phenyl]-amide} 4′{[4-(4-methanesulfonyl-piperazin-1-ylmethyl)-phenyl]-amide} [Example 262]” yielded an IC50 in series [2] of less than 1 µM.
